According to US8173378B2, “Methods of using an alpha-1-adrenergic receptor having altered ligand affinity” (Pharmacome LLC, priority 2007, dated 2012):

Tests used:
[1] = target: T1, α1L-adrenergic receptors in human prostate tissue segments (Homo sapiens, UniProt P35348); assay: [3H]-silodosin binding in human prostate tissue segments
T1 construct: from tissue; host or cells: human prostate tissue segments
T1 sequence (P35348 1-466): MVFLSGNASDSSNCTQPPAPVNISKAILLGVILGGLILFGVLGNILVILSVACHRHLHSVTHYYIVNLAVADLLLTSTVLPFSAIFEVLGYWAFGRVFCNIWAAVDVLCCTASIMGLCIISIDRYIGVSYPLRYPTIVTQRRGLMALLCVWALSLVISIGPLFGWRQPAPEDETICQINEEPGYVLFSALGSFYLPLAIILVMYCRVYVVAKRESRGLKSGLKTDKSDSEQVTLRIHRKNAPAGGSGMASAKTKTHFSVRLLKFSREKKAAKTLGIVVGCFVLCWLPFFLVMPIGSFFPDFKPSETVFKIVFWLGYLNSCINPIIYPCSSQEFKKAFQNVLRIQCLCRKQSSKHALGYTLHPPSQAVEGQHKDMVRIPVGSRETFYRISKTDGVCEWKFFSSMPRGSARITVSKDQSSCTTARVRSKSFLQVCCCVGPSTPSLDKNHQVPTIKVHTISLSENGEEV

α1L-adrenergic receptor = details: α1L subtype; cited from earlier work
α1D-adrenergic receptor = target: T2, α1D-adrenergic receptor (Homo sapiens, UniProt P25100); details: α1D subtype; cited from earlier work
T2 sequence (P25100 1-572): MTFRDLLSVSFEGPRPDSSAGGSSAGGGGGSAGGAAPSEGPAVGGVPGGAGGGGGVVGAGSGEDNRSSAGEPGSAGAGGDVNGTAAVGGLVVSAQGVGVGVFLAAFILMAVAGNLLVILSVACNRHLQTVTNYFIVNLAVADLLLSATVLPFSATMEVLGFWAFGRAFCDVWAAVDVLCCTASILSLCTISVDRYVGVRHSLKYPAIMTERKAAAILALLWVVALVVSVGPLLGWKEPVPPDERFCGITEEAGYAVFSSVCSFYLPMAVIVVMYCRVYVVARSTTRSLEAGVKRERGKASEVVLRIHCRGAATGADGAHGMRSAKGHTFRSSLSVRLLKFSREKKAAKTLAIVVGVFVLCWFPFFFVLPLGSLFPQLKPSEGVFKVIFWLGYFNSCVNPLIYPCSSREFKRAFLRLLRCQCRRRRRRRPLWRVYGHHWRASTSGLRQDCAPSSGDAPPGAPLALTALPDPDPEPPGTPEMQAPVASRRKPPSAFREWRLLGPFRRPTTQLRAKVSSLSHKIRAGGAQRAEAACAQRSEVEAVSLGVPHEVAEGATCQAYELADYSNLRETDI

[2] = target: T3, α1A-adrenergic receptor in α1A cells (Homo sapiens, UniProt P35348); assay: Whole-cell [3H]-silodosin binding in α1A cells (CHO-K1 expressing only ADRA1A)
T3 construct: the coding region of the ADRA1A gene was subcloned into the EcoRI restriction enzyme site of the multicloning site A of the pIRES; expressed in transfected cells
T3 sequence (P35348 1-466): T1 sequence (P35348 1-466)
Procedure: (§1) The vector was amplified/purified in a conventional method, and then transfected into CHO-K1 cells, which are cells of Chinese Hamster ovarian origin, with Lipofectamine 2000 (Invitrogen Corporation) according to the manufacturer's protocol. Two days after the transfection, 1200 μg/ml of the antibiotic Geneticin (G418) were added to the DMEM culture medium. […] The G418-resistant cells were diluted, suspended, and injected dividedly into a 96-well plate so that an average of 0.5 cells was put in per well, and a single colony was chosen. This operation was repeated three times, whereby a stable clone (au cells) having coexpressed the ADRA1A gene and the CREDL1α gene was produced. Further, as control groups, the cells (α1A cells) having stably expressed only the ADRA1A gene and the cells (CREDL1α cells) having stably expressed only the CREDL1α gene were produced.
The stable clone was studied by a pharmacological binding method with [^3H]-silodosin, which is a radioligand. An experiment was conducted using a whole-cell binding method. […] Thereafter, the cells were filtered/washed by a Whatmann GC/F filter pretreated with polyethylene imine, and the radioactivity was measured by a liquid scintillation counter. The non-specific binding was evaluated as binding in the presence of 30 μM phenotolamine. […]

α1B-adrenergic receptor = target: T4, α1B-adrenergic receptor (Homo sapiens, UniProt P35368); details: α1B subtype; cited from earlier work
T4 sequence (P35368 1-520): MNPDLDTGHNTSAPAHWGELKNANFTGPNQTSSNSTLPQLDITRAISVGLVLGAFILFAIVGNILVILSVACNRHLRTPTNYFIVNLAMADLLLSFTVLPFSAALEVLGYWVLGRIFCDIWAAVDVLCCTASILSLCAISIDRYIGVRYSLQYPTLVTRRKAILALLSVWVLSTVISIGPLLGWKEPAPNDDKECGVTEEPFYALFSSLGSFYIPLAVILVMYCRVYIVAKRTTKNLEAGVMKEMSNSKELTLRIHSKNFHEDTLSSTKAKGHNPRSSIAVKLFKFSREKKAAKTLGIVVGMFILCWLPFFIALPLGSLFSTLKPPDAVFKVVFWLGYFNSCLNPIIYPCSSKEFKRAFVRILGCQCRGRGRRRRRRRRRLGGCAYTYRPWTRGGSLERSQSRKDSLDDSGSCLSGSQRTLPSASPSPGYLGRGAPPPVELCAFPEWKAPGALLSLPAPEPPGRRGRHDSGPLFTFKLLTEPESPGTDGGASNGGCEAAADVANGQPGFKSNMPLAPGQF

α1A-adrenergic receptor = target: T5, α1A-adrenergic receptor (Homo sapiens, UniProt P35348); details: α1A subtype; cited from earlier work
T5 sequence (P35348 1-466): T1 sequence (P35348 1-466)

[3] = target: T6, α1L-adrenergic receptor (α1A-adrenergic receptor / CRELD1α complex) in α1L cells (Homo sapiens, UniProt P35348); assay: Whole-cell [3H]-silodosin binding in α1L cells (CHO-K1 coexpressing ADRA1A and CRELD1α); details: for sensitivity of receptors in α1L cells (in words): whole-cell competition binding
T6 construct: the coding region of the ADRA1A gene was subcloned into the EcoRI restriction enzyme site of the multicloning site A of the pIRES; expressed in transfected cells
T6 sequence (P35348 1-466): T1 sequence (P35348 1-466)
T6 sequence (Q96HD1 30-420 partner): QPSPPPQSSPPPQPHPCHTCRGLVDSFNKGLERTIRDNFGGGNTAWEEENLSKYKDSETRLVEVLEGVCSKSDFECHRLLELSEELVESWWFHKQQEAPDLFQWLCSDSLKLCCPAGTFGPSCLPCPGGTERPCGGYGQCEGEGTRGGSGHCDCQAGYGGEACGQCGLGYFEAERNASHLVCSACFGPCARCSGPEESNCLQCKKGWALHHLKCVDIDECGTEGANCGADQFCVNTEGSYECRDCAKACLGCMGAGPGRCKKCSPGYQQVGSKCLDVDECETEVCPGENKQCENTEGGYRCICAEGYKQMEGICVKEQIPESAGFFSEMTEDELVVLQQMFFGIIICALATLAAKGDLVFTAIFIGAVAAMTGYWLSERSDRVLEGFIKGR
Procedure: as §1
The stable clone was studied by a pharmacological binding method with [^3H]-silodosin, which is a radioligand. An experiment was conducted using a whole-cell binding method. That is, cells were scattered two to three days before the experiment so that they are semi-confluent, washed twice with ice-cold PBS, and then scraped by a scraper. The cells thus collected were suspended again in a Krebs-HEPES solution, and then incubated at 4° C. for four hours together with [^3H]-silodosin and another drug as needed. Thereafter, the cells were filtered/washed by a Whatmann GC/F filter pretreated with polyethylene imine, and the radioactivity was measured by a liquid scintillation counter. The non-specific binding was evaluated as binding in the presence of 30 μM phenotolamine.
The binding of [^3H]-silodosin of various concentrations (30 to 1000 pM) to the α1L cells was examined (FIG. 1).
Silodosin is known to bind selectively to the α1A- and α1L-subtypes with a high affinity. […] The α1A cells were used as control cell line. [^3H]-silodosin is known as a selective antagonist of α1A- and α1L-subtypes both.

| SMILES | Ki [1] [nM] | Affinity (pKb) (α1L-adrenergic receptor) | Affinity (pKb) (α1D-adrenergic receptor) | Ki [2] [nM] | Affinity (pKb) (α1B-adrenergic receptor) | Affinity (pKb) (α1A-adrenergic receptor) | Ki [3] [nM] | sensitivity of receptors in α1L cells (in words) ([3]; α1L cells) | Kd ([1]; human prostate tissue segments, read-out: pKD (dissociation equilibrium constant from saturation binding curve) (converted)) [nM] | Kd ([2]; α1A cells, whole-cell method, read-out: pKD (dissociation equilibrium constant from saturation binding curve) (converted)) [nM] | maximum binding amount (Bmax) ([3]; α1L cells, saturation binding, 30 to 1000 pM) [fmol/mg protein] | Kd ([3]; α1L cells, saturation binding, whole-cell method) [nM] |
| --- | --- | --- | --- | --- | --- | --- | --- | --- | --- | --- | --- | --- |
| CC(C)(Cc1c[nH]c2ccc(Cl)cc12)NCCOc1ccccc1OCC1CC1.Cl [RS-17053, N-[2-(2-cyclopropylmethoxyphenoxy)ethyl]-5-chloro-α,α-dimethyl-1H-indole-3-ethanamine hydrochloride] | 251 | 6.3 | 7.8 | 1.58 | 7.8 | 9.1-8.4 | > 1000 | low in sensitivity |  |  |  |  |
| COc1ccccc1N1CCN(CCN2C(=O)CC3(CCCC3)CC2=O)CC1.Cl.Cl [BMY 7378, 8-[2-[4-(2-methoxyphenyl)-1-piperazinyl]ethyl]8-azaspiro[4,5]decane7,9-dione dihydrochloride] |  |  |  |  | 7.4 |  |  | only low sensitivity |  |  |  |  |
| C[C@H](Cc1cc2c(c(C(N)=O)c1)N(CCCO)CC2)NCCOc1ccccc1OCC(F)(F)F [[^3H]-silodosin] |  |  |  |  |  |  |  |  | 0.316 | 0.2 | 134 | 0.843 |
| CCOc1ccccc1OCCN[C@H](C)Cc1ccc(OC)c(S(N)(=O)=O)c1 [tamsulosin] |  |  | 9.9 |  | 9.3 |  |  | high sensitivity |  |  |  |  |
| C[C@H](Cc1cc2c(c(C(N)=O)c1)N(CCCO)CC2)NCCOc1ccccc1OCC(F)(F)F [silodosin] |  | 10.7-9.5 | 8.6 |  | 8.1 | 10.7-9.5 |  |  |  |  |  |  |
